Values of other authors in patent publication US20050158411A1, “Methods and apparatus to prevent, treat, and cure the symptoms of nauea caused by chemotherapy treatments of human cancers” (priority 2000, published 2005).
Entries after “also recorded” stand apart in the source; their conditions may differ.

Experiments:
[1] = test system: fungal infection of the toenails; settings: after six months
[2] = test system: SARS virus growing in tissue cultures

Row | SMILES | effectiveness for fungal infection of the toenails [1] | effect against the SARS virus [2]
1 | Clc1ccccc1C(c1ccccc1)(c1ccccc1)n1ccnc1 [clotrimazole] | equally effective | –
2 | NC(=O)c1ncn([C@@H]2O[C@H](CO)[C@@H](O)[C@H]2O)n1 [ribavirin] | – | no evidence that the drug has any effect; also recorded: conclusively shown ineffective
